Experimental data published in paper PMC12275099, “VX-445 (elexacaftor) inhibits chloride secretion across human bronchial epithelial cells by directly blocking KCa3.1 channels” (PNAS Nexus, 2025).
Where “and” joins values, the source holds several entries; their conditions need not be identical. Equal entries are not always repeated.

Tests used:
KCa2.3 = KCa2.3 (Homo sapiens, UniProt Q9UGI6); assay: Excised inside-out patch-clamp on HEK cells expressing KCa2.3; assay type: biochemical
Experimental: (§1) As above, we performed excised patch-clamp recordings on HEK cells heterologously expressing KCa2.3 or KCa2.2, in order to assess the activity of C2 CFTR corrector compounds. […] In contrast, the subsequent addition of 10 µM VX-659 yielded an almost complete inhibition of KCa2.3 currents, averaging 91 ± 3% (n = 4).
(§2) HEK cells stably expressing KCa3.1 (IK1, SK4), KCa2.3 (SK3), and KCa2.2 (SK2) were generated and cultured as previously described by us ([37], [66–71]).
HEK cells expressing the channel of interest were plated onto poly-L-lysine-coated glass coverslips 1–2 days prior to patch-clamp analysis. Electrophysiological recordings in the excised, inside-out, and whole-cell patch-clamp configurations were performed as recently described ([14]). For excised patch-clamp recordings, the pipette solution contained (in mM): 140 K-gluconate, 5 KCl, 1 CaCl2, 1 MgCl2, and 10 HEPES. The pH was adjusted to 7.2 with KOH. The bath solution contained (in mM): 145 K-gluconate, 5 KCl, 1.3 MgCl2, 10 HEPES, and 1 EGTA. Sufficient CaCl2 was added to obtain the desired free Ca^2+ concentration at a pH of 7.2 (adjusted with KOH). When recording KCa3.1 channels, ATP (300 µM) was added to the bath to diminish channel rundown ([73]). All recordings were carried out at a voltage of −100 mV, referenced to the extracellular compartment, as is standard. The apparent Ki and Hill coefficient for each CFTR corrector on KCa3.1, KCa2.3, and KCa2.2 were determined during a continuous recording by step-wise addition of increasing concentrations of compound and fitting the resultant relative remaining current to a Hill equation (Prism v. 10.1.0). The zero current level was determined by the addition of a 0 Ca^2+ solution (zero-added Ca^2+ plus 1 mM EGTA) at the end of the experiment. […] Current–voltage relationships were determined by stepping from a holding potential of −80 mV to +80 mV in 20 mV increments for 400 ms. The middle 300 ms of each trace was selected to avoid any influence of capacitive transients, and average currents were calculated for each voltage via the I–V tool in Clampfit. […]

[1] = system: BKCa (KCa1.1, KCNMA1) channels; set-up: method as in PMID 38954478; settings: primary HBEs and HEK cells heterologously expressing the channel; cited from earlier work
KCa3.1 = target: T1, KCa3.1 (Homo sapiens, UniProt O15554); assay: Excised inside-out patch-clamp on HEK-KCa3.1; assay type: biochemical
T1 construct: expressed in transfected cells
Experimental: Our Isc results are consistent with VX-445 inhibiting KCa3.1 in HBEs. To directly assess this possibility, we initially carried out whole-cell patch-clamp studies on undifferentiated HBEs. […] Upon application of 10 µM VX-445, a majority of this current was inhibited, averaging 87 ± 4% (n = 3, P < 0.005; Fig. 3B). A summary of the current–voltage (I–V) relationship—normalized to cell capacitance—is shown in Fig. 3C, which also includes the whole-cell I–V in the presence of Tram-34. […] To ensure isolation of KCa3.1 currents and to more fully characterize this VX-445-dependent inhibition of KCa3.1, we utilized HEK cells heterologously expressing KCa3.1 (HEK-KCa3.1). Initially, we confirmed our results from HBEs, using whole-cell recordings, as above. […] In seven experiments, this inhibition averaged 58 ± 7% (P < 0.005). […] It is well recognized that drugs are carried to their targets in the blood bound to albumin, which ranges from 3.4 to 5.4%. Thus, we determined whether VX-445 (10 µM) would inhibit KCa3.1 expressed in HEK cells in the presence of 3.4% albumin. In four experiments, VX-445 inhibited an average of 51 ± 17% of the whole-cell KCa3.1 current, which is not different from that observed in the absence of albumin. To confirm the direct effect of VX-445 on KCa3.1, we utilized the excised, inside-out patch-clamp technique. The patch was then exposed to DCEBIO (100 µM) to further activate the channels ([34–37])—analogous to our Isc studies in HBEs. […] In three experiments, VX-445 inhibited an average of 63 ± 6% of the KCa3.1 current. Based on these experiments, we determined the apparent inhibitory constant, Ki for VX-445. For these experiments, patches were excised into saturating Ca^2+ (3 µM) to ensure maximal KCa3.1 activation. These studies were carried out in the absence of DCEBIO to eliminate the possibility that the inhibition observed was due to competition for the DCEBIO-binding site.
as §2
HEK cells expressing the channel of interest were plated onto poly-L-lysine-coated glass coverslips 1–2 days prior to patch-clamp analysis. Electrophysiological recordings in the excised, inside-out, and whole-cell patch-clamp configurations were performed as recently described ([14]). For excised patch-clamp recordings, the pipette solution contained (in mM): 140 K-gluconate, 5 KCl, 1 CaCl2, 1 MgCl2, and 10 HEPES. The pH was adjusted to 7.2 with KOH. The bath solution contained (in mM): 145 K-gluconate, 5 KCl, 1.3 MgCl2, 10 HEPES, and 1 EGTA. Sufficient CaCl2 was added to obtain the desired free Ca^2+ concentration at a pH of 7.2 (adjusted with KOH). When recording KCa3.1 channels, ATP (300 µM) was added to the bath to diminish channel rundown ([73]). All recordings were carried out at a voltage of −100 mV, referenced to the extracellular compartment, as is standard. The apparent Ki and Hill coefficient for each CFTR corrector on KCa3.1, KCa2.3, and KCa2.2 were determined during a continuous recording by step-wise addition of increasing concentrations of compound and fitting the resultant relative remaining current to a Hill equation (Prism v. 10.1.0). The zero current level was determined by the addition of a 0 Ca^2+ solution (zero-added Ca^2+ plus 1 mM EGTA) at the end of the experiment. In the case of KCa3.1, TRAM-34, a known inhibitor of KCa3.1 ([45]), was used to confirm expression of the channel. For whole-cell experiments, pipettes contained (in mM): 145 K-gluconate, 10 EGTA, 7.5 CaCl2, 2 MgCl2, 3 mM NaATP, and 10 HEPES. The bath solution contained (in mM): 140 K-gluconate, 5 KCl, 1.0 MgCl2, 10 HEPES, and 2 CaCl2. Current–voltage relationships were determined by stepping from a holding potential of −80 mV to +80 mV in 20 mV increments for 400 ms. […]

KCa2.2 = KCa2.2 (Rattus norvegicus, UniProt P70604); assay: Excised inside-out patch-clamp on HEK cells expressing KCa2.2; assay type: biochemical; settings: 1 µM free Ca2+
Experimental: as §1, §2
HEK cells expressing the channel of interest were plated onto poly-L-lysine-coated glass coverslips 1–2 days prior to patch-clamp analysis. […] The apparent Ki and Hill coefficient for each CFTR corrector on KCa3.1, KCa2.3, and KCa2.2 were determined during a continuous recording by step-wise addition of increasing concentrations of compound and fitting the resultant relative remaining current to a Hill equation (Prism v. 10.1.0). The zero current level was determined by the addition of a 0 Ca^2+ solution (zero-added Ca^2+ plus 1 mM EGTA) at the end of the experiment. […] Current–voltage relationships were determined by stepping from a holding potential of −80 mV to +80 mV in 20 mV increments for 400 ms. The middle 300 ms of each trace was selected to avoid any influence of capacitive transients, and average currents were calculated for each voltage via the I–V tool in Clampfit. […]

Sequence of KCa2.3 (Q9UGI6 whole entry): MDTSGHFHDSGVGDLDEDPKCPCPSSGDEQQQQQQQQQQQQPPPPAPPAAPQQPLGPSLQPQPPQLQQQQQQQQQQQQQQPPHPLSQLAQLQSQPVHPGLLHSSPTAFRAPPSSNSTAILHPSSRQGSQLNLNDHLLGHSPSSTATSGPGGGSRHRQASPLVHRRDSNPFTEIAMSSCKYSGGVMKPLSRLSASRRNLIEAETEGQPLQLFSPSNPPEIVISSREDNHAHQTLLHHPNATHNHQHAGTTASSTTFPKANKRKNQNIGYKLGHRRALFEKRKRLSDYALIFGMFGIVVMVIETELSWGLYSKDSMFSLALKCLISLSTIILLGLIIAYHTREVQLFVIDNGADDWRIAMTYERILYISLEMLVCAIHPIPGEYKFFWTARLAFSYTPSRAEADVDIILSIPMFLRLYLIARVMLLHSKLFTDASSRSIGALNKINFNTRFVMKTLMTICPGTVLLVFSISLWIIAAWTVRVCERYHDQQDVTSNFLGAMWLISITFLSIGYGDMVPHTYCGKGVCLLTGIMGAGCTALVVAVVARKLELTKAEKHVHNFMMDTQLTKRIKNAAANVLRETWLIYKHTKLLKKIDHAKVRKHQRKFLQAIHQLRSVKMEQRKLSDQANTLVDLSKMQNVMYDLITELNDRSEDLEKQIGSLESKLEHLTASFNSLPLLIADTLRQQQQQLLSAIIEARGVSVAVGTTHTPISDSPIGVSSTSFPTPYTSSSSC
Sequence of KCa2.2 (P70604 whole entry): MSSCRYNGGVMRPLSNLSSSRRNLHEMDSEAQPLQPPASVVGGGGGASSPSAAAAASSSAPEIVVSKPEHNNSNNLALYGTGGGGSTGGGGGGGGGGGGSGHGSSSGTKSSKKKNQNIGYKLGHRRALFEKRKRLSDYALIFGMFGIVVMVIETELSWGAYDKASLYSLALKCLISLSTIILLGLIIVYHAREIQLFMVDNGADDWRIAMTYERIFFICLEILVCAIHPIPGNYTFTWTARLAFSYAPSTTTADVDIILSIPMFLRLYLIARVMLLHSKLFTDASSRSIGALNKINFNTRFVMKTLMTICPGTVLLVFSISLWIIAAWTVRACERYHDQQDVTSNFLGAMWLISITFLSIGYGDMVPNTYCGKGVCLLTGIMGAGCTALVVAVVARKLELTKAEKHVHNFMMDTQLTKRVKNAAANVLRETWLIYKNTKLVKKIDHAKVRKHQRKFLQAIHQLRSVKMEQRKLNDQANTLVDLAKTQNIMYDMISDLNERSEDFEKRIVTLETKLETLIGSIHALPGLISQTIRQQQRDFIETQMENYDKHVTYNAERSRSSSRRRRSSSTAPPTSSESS

Q: For `C[C@@H]1CN(c2nc(-n3ccc(OCCC4(C(F)(F)F)CC4)n3)ccc2C(=O)NS(=O)(=O)c2ccccc2)C(C)(C)C1` [VX-659, bamocaftor], which Hill coefficient (KCa2.3; 1 µM free Ca2+) is on record?
A: 1.9 and 1.3

Q: And the inhibition at 10 µM (KCa2.3; read-out: inhibition of KCa2.3 currents)?
A: 91 ± 3%

Q: What about the “effect on BKCa” value [1] of the same compound?
A: weakly potentiates

Q: And the Hill coefficient (KCa3.1; 3 µM free Ca2+, absence of DCEBIO)?
A: 1.8

Q: And the Ki (KCa3.1; 3 µM free Ca2+, absence of DCEBIO, Hill fit, n = 4, read-out: apparent Ki)?
A: 0.89 µM and 0.9 µM

Q: What about the inhibition at 10 µM (KCa3.1; 10 µM compound after DCEBIO 100 µM, 1 µM free Ca2+, three experiments, read-out: inhibition of KCa3.1 current in excised patch) of the same compound?
A: 98 ± 1%

Q: And the “selectivity among KCNN gene family members” value (KCa3.1; KCa3.1 versus KCa2.2 and KCa2.3)?
A: inhibits all members of the KCNN gene family with a similar affinity

Q: And the relative remaining current (KCa3.1; [VX-659] 0.3, Fig 4G single experiments)?
A: 89 and 100 and 78 and 88

Q: And the Hill coefficient (KCa2.2)?
A: 1.6 and 2.1
